Marks after values point to notes of the source that are not given here.

Data set [1] has as its system tyrosine phosphatase activity in PMNs. Briefly: in vitro phosphatase activity (pNPP) on membranes from human primary PMNs. The following applies: PMN membranes, DMSO 0.75. Type of data set: biochemical. The method, then: We first tested the biochemical activity of the fusion peptide by performing in vitro assays of phosphatase activity on purified membranes isolated from human primary monocytes compared to membranes isolated from human primary polymorphonuclear cells (PMNs). Human primary monocytes and polymorphonuclear (PMNs) cells were isolated from whole blood of healthy donors. Purity of monocyte preparation was evaluated by flow cytometry after staining with fluorescein isothiocyanate (FITC)-conjugated anti-CD14 antibody and was more than 95%. Isolated cells were kept at 37° C. in standard adhesion buffer (PBS, 1 mM CaCl2, 1 mM MgCl2, 10% FBS, pH 7.2) and used within 1 h.
The phosphatase activity in membrane fractions isolated from human monocytes and PMNs was assessed. […] Cells were then sonicated twice (6 sec, 15% W) and centrifuged at 2000 rpm for 10 minutes. The supernatants were collected and centrifuged at 28000 rpm for 60 minutes. After centrifugation, the supernatants were discarded, and the membrane pellets were dissolved in 20 mM tris pH 7.4. Equal amount of membrane fractions were added to pNPP buffer containing 20 mM tris, 10 mM DTT and 2 mM pNPP. Following, DMSO and peptides were added. After 30 minutes of incubation, levels of de-phosphorylation, in presence or absence of orthovanadate, were measured at 405 nm by a plate reader. Values are absorbance at 405 nn shown as percent fold increase over the blank; mean values of three experiments are shown. *p<0.001 vs vehicle (DMSO).

The subject of data set [2] is Hbb^th3/+ mice (β-thalassemia model). Briefly: bone marrow erythroid precursors by flow cytometry (CD44, TER119). It is filed as in vivo, mouse. The note with it: for percent of bone marrow erythroid precursors (fsc high CD44+TER119+ cells), Mean: ICD-Treated, 3 weeks. The method, then: (§1) Wild-type C57BL/6J mice and the mouse model for β-thalassemia (designated as Hbb^th3/+) were used for these studies. Flow cytometric analysis and sorting of mouse bone marrow and spleen precursors were performed using standard protocols using markers for CD44 and TER119 and cell size (forward scatter) to distinguish erythroid precursors at each distinct developmental stage. Forward scatter high-CD44+Ter119+ cells represents total erythroblasts (or erythroid mass in bone marrow or spleen). These erythroblasts can be further analyzed and sorted in subpopulations: population I: pro-erythroblasts; population II: basophilic erythroblasts; population III: polychromatic erythroblasts; population IV: orthochromatic erythroblasts, as described in Matte et al 2015, Antioxid. Redox Signal. 2015 23(16):1284-1297. Population II, III and IV corresponding to basophilic erythroblasts, polychromatic erythroblasts and orthochromatic erythroblasts were sorted from bone marrow as previously described (Matte et al 2015 Antioxid. Redox Signal. 2015 23(16):1284-1297).
Ineffective erythropoiesis in β-thalassemia is characterized by a block in cell maturation with accumulation of erythroid precursors and increased cell apoptosis in late phase erythropoiesis in the bone marrow.
Treatment of Hbb^th3/+ mice with PTPRG ICD results in a statistically significant increases in the percent of proerythroblasts (P<0.001) back to normal levels (5.9+/−0.6). In addition, ROS levels, which are increased in all four populations in Hbb mice compared to wild type mice are decreased PTPRG ICD-treated mice in all four populations, in agreement with the decrease in ROS levels in circulating red cells (Table 39).
Background: Flow cytometry measures light scatter and fluorescence of single cells or particles in a stream.

For data set [3] the test system is unchanged. Description: hematological parameters and red cell indices in β-thalassemic and wild-type mice. The note with it: TAT-ICD 5 mg/kg i.p. once every other day for 3 weeks. It is filed as in vivo, mouse. Details: CH (hemoglobin concentration): unit not given here. As to the method:
as §1
(§2) Wild-type and Hbb^3th/+ were treated with TAT-ICD at 5 mg/kg i.p once every other day for 3 weeks. […] Hematological parameters, red blood cell indices and reticulocyte counts were determined using standard procedures. Table 37 summarizes the effect of treatment of WT and HBB mice with TAT-ICD9 on key hematological parameters and red cell indices.

Data set [4] has the same test system. Description: apoptosis of bone marrow orthochromatic erythroblasts (Annexin-V PE). It is filed as in vivo, mouse. The following applies: ICD-Treated, 3 weeks. The method, then: One of the hallmarks of β-thalassemia is increased apoptosis of late-stage erythroblasts. Apoptosis of population IV (orthochromatic erythroblasts) was assessed using standard protocols using the Annexin-V PE apoptosis kit following manufacturer instructions. Data are the mean percent of apoptotic cells (Table 42).

A short description of data set [5]: body weight as a measure of toxicity. It is filed as in vivo, mouse. The following applies: Wild-type and Hbb^3th/+ mice; 5 mg/kg i.p once every other day for 3 weeks. As to the method:
as §2

The test system of data set [6] is Hbb^th3/+ mice (β-thalassemia model). Description: extramedullary erythropoiesis in spleen. Type of data set: in vivo, mouse. The note with it: treated mice, 3 weeks. As to the method: as §1
The test system is the same in data set [7]. Description: circulating erythroblasts. The following applies: TAT-ICD 5 mg/kg i.p once every other day for 3 weeks. It is filed as in vivo, mouse.
Data set [8] shares this test system. Briefly: percent of soluble alpha globin in red cells. Type of data set: in vivo, mouse. The note with it: TAT-ICD 5 mg/kg i.p once every other day for 3 weeks. The text has this:
We also observed a significant improvement in the α/β globin ratio with treatment of beta-thalassemic mice, a key measure of successful treatment of beta-thalassemia. The mutations in the beta-globin gene in beta-thalassemia results in absent or reduced synthesis of beta-globin chains leading to unbalanced globin chain synthesis and unpaired alpha-chain that form highly toxic aggregates in erythroid progenitors and red blood cells, and can be measured as a decrease in soluble alpha globulin. We measured the amount of soluble vs insoluble globulin not bound to heme (Table 38) and observed a significant (P<0001; 2 tailed T test) decrease in the percent of soluble alpha-globin in the beta-thalassemic mice compared to wild type mice (Table 38).

Consider “P1-WD: fusion Trojan peptide SEQ ID 3: Penetratin, glycine, PTPRG wedge domain aa 831-856; RQIKIWFQNRRMKWKKGKQFVKHIGELYSNNQHGFSEDFEEVQ (listed as Homo sapiens)”, for which the figures for the “phosphatase activity, absorbance at 405 nm as percent fold increase over the blank” value in data set [1] (P1-WD 50 micromolar), in data set [1] (P1-WD 100 micromolar) and in data set [1] (P1-WD 200 micromolar) were 5.15%, 8.54% and 12.89%, respectively.
Regarding “TAT-ICD: fusion recombinant protein SEQ ID 5: PTPRG intracellular domain aa 797-1445 fused to 13 aa TAT sequence”, the “percent of bone marrow erythroid precursors (fsc high CD44+TER119+ cells), Mean” value in data set [2] (Hbb^th3/+ mice) is given as 23.8* percent. In addition, in data set [2] (Wild-type mice), the “percent of bone marrow erythroid precursors (fsc high CD44+TER119+ cells), Mean” value came out at 13.9%. In addition, in data set [2] (treated Hbb^th3/+ mice, untreated Hbb^th3/+ 3.6+/−0.9, wild-type 6.5+/−0.9), the “percent of pro-erythroblasts (population I) in bone marrow” value was 5.9+/−0.6%. Besides, in data set [3] (Hbb3th/+ mice, n = 4), the “CH (hemoglobin concentration)” value was 10.4 ± 0.3, the “CHr (reticulocyte hemoglobin concentration)” value came to 12.0 ± 0.39 pg, the “Hb (hemoglobin)” value was 10.1 ± 0.3 g/dL and the “Hct (hematocrit)” value amounted to 34.8 ± 4.9 %. In data set [3] (Hbb3th/+ mice, n = 4), the “MCH (mean corpuscular hemoglobin)” value is recorded as 10.2 ± 0.4 pg, the “MCV (mean corpuscular volume)” value was 393 ± 0.9 fL, the “MCVr (mean corpuscular volume reticulocytes)” value was found to be 49.2 ± 1.2 fL and the Neutrophil was determined as 1407 ± 597 cells/uL. In data set [3] (Hbb3th/+ mice, n = 4), the “RDW (red cell distribution width)” value worked out at 25.7 ± 1.0 %, the “Retics (reticulocytes)” value came to 18.2 ± 2.0 % and the WBC stood at 9125 ± 1021 cells/uL. In data set [3] (WT mice, n = 3), the “CH (hemoglobin concentration)” value is listed as 13.6 ± 0.2, the “CHr (reticulocyte hemoglobin concentration)” value stood at 14.0 ± 0.1 pg, the “Hb (hemoglobin)” value came to 14.9 ± 0.4 g/dL and the “Hct (hematocrit)” value amounted to 46.3 ± 0.5%. Moreover, in data set [3] (WT mice, n = 3), the “MCH (mean corpuscular hemoglobin)” value is listed as 15.0 ± 0.7 pg, the “MCV (mean corpuscular volume)” value is recorded as 50.1 ± 0.1 fL, the “MCVr (mean corpuscular volume reticulocytes)” value came out at 55.0 ± 0.3 fL and the Neutrophil is reported as 1833 ± 461 cells/uL. In data set [3] (WT mice, n = 3), the “RDW (red cell distribution width)” value is reported as 13.6 ± 0.3 %, the “Retics (reticulocytes)” value is reported as 4.3 ± 0.5 % and the WBC is on record as 6005 ± 980 cells/uL. Besides, the “mean percent of apoptotic cells, bone marrow orthochromatic erythroblasts (population IV)” value in data set [4] (Hbb^th3/+ mice) was 5.75* percent. Further, the “mean percent of apoptotic cells, bone marrow orthochromatic erythroblasts (population IV)” value in data set [4] (Wild-type mice) worked out at 4.20%. Besides, in data set [5], the “body weight as a measure of toxicity” value is “no changes were observed”. The “extramedullar erythropoiesis in spleen” value in data set [6] is listed as “trend to reduction”. Also, the circulating erythroblasts in data set [7] (Hbb^th3/+ mice, Vehicle-treated 32.0) is reported as 10.8*. In data set [7] (Wild-type mice, Vehicle-treated 0), this substance had a circulating erythroblasts of 0. Moreover, in data set [8] (Hbb^th3/+ mice, Vehicle-treated 87.9), the “percent of soluble alpha globulin” value is 92.5* %. For the same substance, the “percent of soluble alpha globulin” value in data set [8] (Wild-type mice, Vehicle-treated 98.4) is 97.9%.
Consider “P1: Penetratin delivery peptide, 16 aa RQIKIWFQNRRMKWKK (SEQ ID 4), control [reference compound]”, for which, in data set [1] (control peptide, concentration not given), the “phosphatase activity, absorbance at 405 nm as percent fold increase over the blank” value is recorded as 5.08%.

For the origin of these results see patent US10898548B2, “Modulators of protein tyrosine phosphatase and uses thereof” (LEUVAS THERAPEUTICS, priority 2015, dated 2021).
